From patent US20070298106A1, “Sustained Release Formulation Containing Selective Serotonin Reuptake Inhibitor and Method for the Preparation Thereof” (Amorepacific Corporation, priority 2004, published 2007)
Structures can show the parent of a compound that is named as a salt.

Assay: solubility of the drug
Assay type: physicochemical

solubility: 5400 µg/mL
SMILES: Fc1ccc([C@@H]2CCNC[C@H]2COc2ccc3c(c2)OCO3)cc1 [Paroxetine hydrochloride]
